Source: PMC10065791 (eLife, 2023)

How the values were obtained:
[1] = test system: mixture of 26 isogenic NL4-3 protease mutant viruses; test: Selection for resistance in CEMx174 culture with escalating inhibitor, start mixture of 26 isogenic single mutants, Primer ID deep sequencing; type: cell-based, HIV-1
Experimental: . The selection experiments were performed under two separate starting conditions: first when the starting virus was generated from the NL4-3 clone (this clone closely approximates the clade B consensus for the protease amino acid sequence and will be referred to as ‘wild type’), then again when the starting virus was a mixture of 26 isogenic viruses each with a single mutation associated with drug resistance in the NL4-3 background. […] The initial inhibitor concentration started at low nanomolar concentrations and increased by a factor of 1.5 with each subsequent viral passage (the inhibitor concentration was increased only after the virus spread efficiently through the culture). […] For technical reasons, only five of the selections starting with the mixture of mutants reached an inhibitor concentration as high as 400 nM and are reported here (Figure 2—figure supplement 3). […]
CEMx174 cells were maintained in RPMI 1640 medium with 10% fetal calf serum and penicillin-streptomycin. […] Cell phenotypes were monitored for their ability to generate virus after transfection (293Ts), support viral replication (CEMx174), or report viral infection (TZM-bl). […]

wild-type NL4-3 protease = target: T1, wild-type NL4-3 protease (Human immunodeficiency virus type 1 group M subtype B, UniProt P12497, Q495K); design: method as in Lockbaum et al. (ACS Infect Dis. 2019 Feb 8; 5 (2): 316–325); settings: previously reported, ref Lockbaum et al. (ACS Infect Dis. 2019 Feb 8, 5 (2): 316–325), read-out: Ki WT; cited from earlier work
T1 construct: the gene encoding the desired HIV-1 protease was subcloned into the heat-inducible pXC35 expression vector; made in house

I84V mutant protease = target: T2, I84V mutant protease (Human immunodeficiency virus type 1 group M subtype B, UniProt P12497, I572V/Q495K); design: method as in Lockbaum et al. (ACS Infect Dis. 2019 Feb 8; 5 (2): 316–325); settings: I84V drug-resistant protease variant; previously reported; ref Lockbaum et al. (ACS Infect Dis. 2019 Feb 8; 5 (2): 316–325); cited from earlier work
T2 construct: the gene encoding the desired HIV-1 protease was subcloned into the heat-inducible pXC35 expression vector; made in house

[2] = target: T3, I50V/A71V mutant protease (Human immunodeficiency virus type 1 group M subtype B, UniProt P12497, A559V/I538V/Q495K); design: method as in Lockbaum et al. (ACS Infect Dis. 2019 Feb 8; 5 (2): 316–325); settings: I50V/A71V drug-resistant protease variant; previously reported; ref Lockbaum et al. (ACS Infect Dis. 2019 Feb 8; 5 (2): 316–325); cited from earlier work
T3 construct: the gene encoding the desired HIV-1 protease was subcloned into the heat-inducible pXC35 expression vector; made in house

| SMILES | Abundance of variant at the last time point ([1]; variant 10F/46I/50V/63P/85V, passage 58, [PI] 400 nM) [%] | Abundance of variant at the last time point ([1]; variant 13V/16E/32I/33F/45I/46I/54L/71V/76V/82F/84V, passage 53, [PI] 5000 nM) [%] | Ki (wild-type NL4-3 protease) [nM] | Ki (I84V mutant protease) [nM] | Ki [2] [nM] |
| --- | --- | --- | --- | --- | --- |
| CCC(CC)CN(C[C@@H](O)[C@H](Cc1ccccc1)NC(=O)O[C@H]1CO[C@H]2OCC[C@H]21)S(=O)(=O)c1ccc(OC)cc1 [UMASS-7] | 21.0 | – | – | – | – |
| CCC(CC)CN(C[C@@H](O)[C@H](Cc1ccccc1)NC(=O)O[C@H]1CO[C@H]2OCC[C@H]21)S(=O)(=O)c1ccc(N)cc1 [UMASS-6] | – | 62.8 | < 0.005 | 0.0128 ± 0.0031 | 0.1 ± 0.0099 |
